Reference: patent US20180312493A1, “Antibiotic Compounds, Pharmaceutical Formulations Thereof And Methods And Uses Therefor” (Simon Fraser University, priority 2015, published 2018)
Values after ≈ are worked out from the molar mass of the structure shown.

What was measured:
[1] = target: T1, MRSA Pyk (Staphylococcus aureus, UniProt Q6GG09); test: MRSA pyruvate kinase (PK) activity, continuous LDH-coupled assay; format: biochemical, methicillin resistant S. aureus (MRSA252)
T1 construct: made in house; host or cells: E. coli BL-21 (DE3)
Excerpt: Genomic DNA of MRSA strain Sanger 252 extracted using DNeasy Tissue Kit™ (Qiagen™) was used as a template to generate the His-tagged MRSA PK. Human cDNA from MCF-7 breast cancer cell line (courtesy of Dr. J Wong, BC Cancer Research Center (Vancouver, Canada)) was used as a template to generate the full-length human M2 PK enzyme. The following primer sets were used creating appropriate restriction sites (NdeI and XhoI sites underlined): For cloning of MRSA PK: M27F 5′-[…]-3′ and M27R 5′-[…]-3′, for cloning of human M2 PK isoform: hM2F 5′-[…]-3′ and hM2R 5′-[…]-3′. The resulting PCR fragments for each construct were cloned into the NdeI and XhoI unique sites of the bacterial expression vector pET-28a (+) (Novagen™). […] The sequence and the correct reading frame of all constructs were verified by sequencing. Human M1, R and L PK constructs in pET-28-a(+) vectors (courtesy of Dr. L. Cantley, Harvard Medical, School (Boston, USA)) were used to generate relevant recombinant His-tagged human PK isoforms.
MRSA and human constructs in pET-28a(+) were used to express relevant recombinant PK proteins in E. coli BL-21 (DE3). The proteins were expressed and purified using Ni-NTA agarose (Qiagen™) according to the manufacturer's protocol. Briefly, cells were grown to an absorbance of 0.4-0.5 at 600 nm in 2×YT medium, then induced with 0.1 mM IPTG for 3 h at 20° C. Cells were lysed by sonication on ice (3×10-s bursts with a 30-s recovery between bursts) in lysis buffer (0.2 mg/ml lysozyme, 50 mM Tris pH 7.5, 10 mM MgCl2, 200 mM NaCl, 100 mM KCl, 10% glycerol, 10 mM imidazole, 0.5% NP-40 and 1 mM DTT containing Complete™ protease inhibitor). Cell lysates were cleared by centrifugation (18,000×g in a Beckman™ JA-20 rotor) for 20 min at 4° C. and PK isoforms were purified by batch binding to Ni-NTA resin. The resins were then packed in columns (1×2 cm) and washed with 400 column volumes lysis buffer containing 30 mM imidazole. His-tagged PK isoforms were eluted with the same buffer containing 300 mM imidazole. The proteins were dialyzed overnight at 4° C. against 2000 volumes of ice-cold 30 mM Tris pH 7.5, 25 mM KCl, 5 mM MgCl2, 10% glycerol and 1 mM DTT to remove imidazole. All purification steps were done at 4° C.; enzymes were flash-frozen and stored at −70° C. Enzymatic activity of frozen protein preparations was stable for at least 10 months and up to 5 freeze/thaw cycles. Purity and physical integrity of proteins were assessed using SDS-polyacrylamide gel electrophoresis (SDS-PAGE) followed by coomassie blue staining. Protein concentration was estimated by Bradford assay (Bio-Rad Protein Assay™) using bovine serum albumin as a standard.
Candidate MRSA PK inhibitors were assayed for their ability to inhibit enzymatic activities of MRSA and human PKs. PK activity was determined using a continuous assay coupled to lactate dehydrogenase (LDH) in which the change in absorbance at 340 nm owing to oxidation of NADH was measured using a Benchmark Plus™ microplate spectrophotometer (Bio-Rad Laboratories, Hercules, Calif.). […] Reactions were initiated by the addition of 15 nM of one of the PK enzymes. PK activity proportional to the rate of change at 340 nm was expressed as specific activity (μmol/min/mg), which is defined as the amount of PK that catalyzes the formation of one micromole of either product per minute. Inhibitors were dissolved in DMSO with the final concentration of the solvent never exceeding 1% of the assay volume. IC50 values were calculated by curve fitting on a four-parameter dose-response model with variable slope using Graphpad Prism 5.0™ (GraphPad™ Software Inc., La Jolla, Calif.). In all studies, less than 10% of total PEP was exhausted during the reaction. Reactions were performed at 30° C. for up to 5 min. All values determined represent at least two measurements, in triplicate (Tables 1-6) or duplicate unless mentioned otherwise. […]

[2] = tested on: S. aureus (ATCC29213); test: In vitro susceptibility, broth microdilution (MIC); format: cell-based; conditions: Staphylococcus aureus; S. aureus ATCC29213; 18-24 h, 37 C; read-out: Antimicrobial activity (MIC) S. aureus ATCC29213
Excerpt: Epidemic methicillin resistant S. aureus (MRSA) strain sequenced at the Sanger Centre (MRSA252, NRS71) was obtained from NARSA (Network on Antimicrobial Resistance in S. aureus). Methicillin sensitive S. aureus (ATCC 29213 and 25923), methicillin resistant S. aureus (ATCC BAA-1762), and Salmonella typhimurium (ATCC BAA-185) were obtained from ATCC, The Global Bioresource Center. Acinetobacter baumannii (ATCC 19606 and ATCC 17978), Klebsiella pneumonia (C238), vancomycin resistant Enterococci #2 (2010A) (VRE#2), MRSA (USA400, MW2) and Pseudomonas aeruginosa (PA0-1) were obtained from the laboratory of Dr B. B. Finlay at the University of British Columbia (Vancouver, Canada).
The antimicrobial activities of PK inhibitor candidates were determined using the 96-well microtiter standard 2-fold serial broth microdilution method as described by CLSI (formerly NCCLS) with the various gram-positive and gram-negative bacteria species mentioned above. Bacteria from a single colony were grown, overnight in either BHI Broth (VRE), mueller hinton broth (S. aureus 29213; MRSA USA400, A. baumannii 19606, MRSA BAA-1762) or L-broth (P. aeruginosa, S. typhimurium, K. pneumonia and A. baumannii 17978). […] Culture plates were incubated for 18-24 h at 37° C., and optical density at 600 nm (OD600) was measured using a Benchmark Plus™ microplate spectrophotometer (Bio-Rad™). The absorbance control values for the series containing CAMHB and inhibitor were subtracted as background from the corresponding infected wells. Minimal inhibitory concentration (MIC) was defined as the lowest concentration of test compound leading to complete inhibition of cell growth in relation to compound-free control wells as determined by optical density. Vancomycin, methicillin and ciprofloxicin were used as reference compounds. All assays were run in triplicate or duplicate. Experiments were replicated at least twice to verify reproducibility using the above conditions.

T1 sequence (Q6GG09 whole entry): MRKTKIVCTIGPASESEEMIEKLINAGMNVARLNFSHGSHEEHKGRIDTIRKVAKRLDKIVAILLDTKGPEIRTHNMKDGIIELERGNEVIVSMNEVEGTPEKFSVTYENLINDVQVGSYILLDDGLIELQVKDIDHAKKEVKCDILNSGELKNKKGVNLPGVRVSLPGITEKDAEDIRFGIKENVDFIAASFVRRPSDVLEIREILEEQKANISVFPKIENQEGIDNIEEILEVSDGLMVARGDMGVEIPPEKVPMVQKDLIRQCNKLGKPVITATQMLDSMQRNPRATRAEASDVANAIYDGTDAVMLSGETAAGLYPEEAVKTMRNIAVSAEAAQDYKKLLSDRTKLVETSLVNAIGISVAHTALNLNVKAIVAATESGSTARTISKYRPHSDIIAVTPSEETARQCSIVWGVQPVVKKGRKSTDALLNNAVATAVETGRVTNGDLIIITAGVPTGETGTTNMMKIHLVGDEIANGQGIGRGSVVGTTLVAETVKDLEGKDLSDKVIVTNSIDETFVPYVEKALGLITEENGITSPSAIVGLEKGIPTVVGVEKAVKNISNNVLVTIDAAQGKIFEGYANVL

Row | SMILES | IC50 [1] [µM] | MIC [2] [µg/mL]
1 | CN1CCN(CCNC(=O)c2c(/C=C/c3ccc(Cl)cc3)[nH]c3cc(Br)ccc23)CC1 [Compound 31, (E)-6-Bromo-2-(4-chlorostyryl)-N-(2-(4-methylpiperazin-1-yl)ethyl)-1 H-indole-3-carboxamide] | < 0.1 | 16 (≈ 31.9 µM)
2 | O=C(NC(CO)CO)c1c(/C=C/c2ccc(Cl)cc2)[nH]c2cc(Br)ccc12 [Compound 32, (E)-6-Bromo-2-(4-chlorostyryl)-N-(1,3-dihydroxypropan-2-yl)-1H-indole-3-carboxamide] | < 0.1 | > 64
3 | CC(C)(C)OC(=O)N1CCN(CCNC(=O)c2c(/C=C/c3ccc(Cl)cc3)[nH]c3cc(Br)ccc23)CC1 [Compound 33, (E)-tert-Butyl 4-(2-(6-bromo-2-(4-chlorostyryl)-1H-indole-3-carboxamido)ethyl)piperazine-1-carboxylate] | > 1 | > 64
4 | CN(C)CCNC(=O)c1c(/C=C/c2cc(Cl)cc(Cl)c2)[nH]c2cc(Br)ccc12 [Compound 34, (E)-6-Bromo-2-(3,5-dichlorostyryl)-N-(2-(dimethylamino)ethyl)-1H-indole-3-carboxamide] | > 1 | 16 (≈ 33.2 µM)
5 | COc1ccc(/C=C/c2[nH]c3cc(Br)ccc3c2C(=O)NCCO)nc1 [Compound 35, (E)-6-Bromo-N-(2-hydroxyethyl)-2-(2-(5-methoxypyridin-2-yl)vinyl)-1 H-indole-3-carboxamide] | 0.1 to 1 | > 64
6 | CN(C)C(=O)c1c(/C=C/c2ccc(Cl)nc2)[nH]c2cc(Br)ccc12 [Compound 36, (E)-6-bromo-2-(2-(6-chloropyridin-3-yl)vinyl)-N,N-dimethyl-1H-indole-3-carboxamide] | 0.1 to 1 | > 64
7 | O=C(O)CNC(=O)c1c(/C=C/c2ccc(Cl)cc2)[nH]c2cc(Br)ccc12 [Compound 38, (E)-2-(6-Bromo-2-(4-chlorostyryl)-1H-indole-3-carboxamido)acetic Acid] | < 0.1 | > 64
8 | O=C(O)CCNC(=O)c1c(/C=C/c2ccc(Cl)cc2)[nH]c2cc(Br)ccc12 [Compound 39, (E)-3-(6-Bromo-2-(4-chlorostyryl)-1H-indole-3-carboxamido)propanoic Acid] | < 0.1 | > 64
9 | O=C(NCCC1CCOCC1)c1c(/C=C/c2ccc(Cl)cc2)[nH]c2cc(Br)ccc12 [Compound 42, (E)-6-Bromo-2-(4-chlorostyryl)-N-(2-(tetrahydro-2H-pyran-4-yl)ethyl)-1H-indole-3-carboxamide] | 0.1 to 1 | > 64
10 | O=C(c1c(CCc2ccc(Cl)cc2)[nH]c2cc(Br)ccc12)N1CCOCC1 [Compound 47, (6-Bromo-2-(4-chlorophenethyl)-1H-indol-3-yl)(morpholino)methanone] | > 1 | > 64
11 | CNC(=O)c1c(CCc2ccc(Cl)cc2)[nH]c2cc(Br)ccc12 [Compound 49, 6-Bromo-2-(4-chlorophenethyl)-N-methyl-1H-indole-3-carboxamide] | > 1 | > 64
12 | CN(C)C(=O)c1c(CCc2ccc(Cl)cc2)[nH]c2cc(Br)ccc12 [Compound 50, 6-Bromo-2-(4-chlorophenethyl)-N,N-dimethyl-1H-indole-3-carboxamide] | > 1 | > 64
13 | CN(C)C(=O)c1c(CCc2ccc(Cl)cc2)[nH]c2ccccc12 [Compound 51, 2-(4-Chlorophenethyl)-N,N-dimethyl-1H-indole-3-carboxamide] | > 1 | > 64
14 | O=C(NCCN1CCNCC1)c1c(/C=C/c2ccc(Cl)cc2)[nH]c2cc(Br)ccc12 [Compound 52, (E)-6-Bromo-2-(4-chlorostyryl)-N-(2-(piperazin-1-yl)ethyl)-1H-indole-3-carboxamide] | < 0.1 | 16 (≈ 32.8 µM)
15 | O=C(NC1CCNCC1)c1c(/C=C/c2ccc(Cl)cc2)[nH]c2cc(Br)ccc12 [Compound 53, (E)-6-Bromo-2-(4-chlorostyryl)-N-(piperidin-4-yl)-1H-indole-3-carboxamide] | < 0.1 | 8 (≈ 17.4 µM)
16 | N[C@@H](CCCCNC(=O)c1c(/C=C/c2ccc(Cl)cc2)[nH]c2cc(Br)ccc12)C(=O)O [Compound 54, (S,E)-2-Amino-6-(6-bromo-2-(4-chlorostyryl)-1H-indole-3-carboxamido)hexanoic Acid] | < 0.1 | > 64
17 | O=C(NCCN1CCN(C(=O)CCC(=O)N2CCN(CCNC(=O)c3c(/C=C/c4ccc(Cl)cc4)[nH]c4cc(Br)ccc34)CC2)CC1)c1c(/C=C/c2ccc(Cl)cc2)[nH]c2cc(Br)ccc12 [Compound 55, (E)-N,N′-((4,4′-succinylbis(piperazine-4,1-diyl))bis(ethane-2,1-diyl))bis(6-bromo-2-((E)-4-chlorostyryl)-1H-indole-3-carboxamide)] | > 1 | > 64
18 | O=C(NCCN1CCN(C(=O)CO)CC1)c1c(/C=C/c2ccc(Cl)cc2)[nH]c2cc(Br)ccc12 [Compound 58, (E)-6-Bromo-2-(4-chlorostyryl)-N-(2-(4-(2-hydroxyacetyl)piperazin-1-yl)ethyl)-1H-indole-3-carboxamide] | < 0.1 | > 64
19 | O=C(O)CCC(=O)N1CCN(CCNC(=O)c2c(/C=C/c3ccc(Cl)cc3)[nH]c3cc(Br)ccc23)CC1 [Compound 59, (E)-4-(4-(2-(6-Bromo-2-(4-chlorostyryl)-1H-indole-3-carboxamido)ethyl)piperazin-1-yl)-4-oxobutanoic Acid] | 0.1 to 1 | > 64
20 | O=C(OCCN1CCOCC1)c1c(/C=C/c2ccc(Cl)cc2)[nH]c2cc(Br)ccc12 [Compound 62, 2-Morpholinoethyl (E)-6-bromo-2-(4-chlorostyryl)-1H-indole-3-carboxylate] | 0.1 to 1 | > 64
21 | O=C(NCc1ccccc1)c1cc(Br)cc2[nH]c(/C=C/c3ccc(Cl)cc3)cc12 [Compound 63, (E)-N-Benzyl-6-bromo-2-(4-chlorostyryl)-1H-indole-4-carboxamide] | 0.1 to 1 | > 64
